Data: the supplement of paper PMC8149375

Legend:
Conditions in all cases: treatment: drug alone; 5 days
ACHN [1] = test: AUC of dose-response viability curve, drug alone (arbitrary (AUC of normalised viability)); higher = less growth inhibition
Experimental: (§1)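 Primary HTS: 8 RCC cell lines treated with 8 doses (up to 10 uM) of each library drug alone for 5 days; viability read by CellTiter-Glo and normalised to DMSO. GI50 was fitted with XLfit (4-parameter), AUC is the area under the dose-response curve, and minimum viability is the lowest fraction of DMSO viability across doses.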

CAKI-1 [2] = test: as above
Experimental: as §1

769-P [3] = test: as above
Experimental: as §1

A498 [4] = test: as above
Experimental: as §1

TK-10 [5] = test: as above
Experimental: as §1

UO-31 [6] = test: as above
Experimental: as §1

SN12C [7] = test: as above
Experimental: as §1

786-O [8] = test: as above
Experimental: as §1

ACHN [9] = test: GI50, drug alone; higher = less potent
Experimental: as §1

CAKI-1 [10] = test: GI50, drug alone; higher = less potent
Experimental: as §1

769-P [11] = test: GI50, drug alone; higher = less potent
Experimental: as §1

A498 [12] = test: GI50, drug alone; higher = less potent
Experimental: as §1

TK-10 [13] = test: GI50, drug alone; higher = less potent
Experimental: as §1

UO-31 [14] = test: GI50, drug alone; higher = less potent
Experimental: as §1

SN12C [15] = test: GI50, drug alone; higher = less potent
Experimental: as §1

786-O [16] = test: GI50, drug alone; higher = less potent
Experimental: as §1

ACHN [17] = test: minimum viability across doses, drug alone, relative to DMSO (fraction); higher = less growth inhibition
Experimental: as §1

CAKI-1 [18] = test: as above
Experimental: as §1

769-P [19] = test: as above
Experimental: as §1

A498 [20] = test: as above
Experimental: as §1

TK-10 [21] = test: as above
Experimental: as §1

UO-31 [22] = test: as above
Experimental: as §1

SN12C [23] = test: as above
Experimental: as §1

786-O [24] = test: as above
Experimental: as §1

Compound	AUC of dose-response viability curve (ACHN [1])	AUC of dose-response viability curve (CAKI-1 [2])	AUC of dose-response viability curve (769-P [3])	AUC of dose-response viability curve (A498 [4])	AUC of dose-response viability curve (TK-10 [5])	AUC of dose-response viability curve (UO-31 [6])	AUC of dose-response viability curve (SN12C [7])	AUC of dose-response viability curve (786-O [8])	GI50, drug alone (ACHN [9]) [nM]	GI50, drug alone (CAKI-1 [10]) [nM]	GI50, drug alone (769-P [11]) [nM]	GI50, drug alone (A498 [12]) [nM]	GI50, drug alone (TK-10 [13]) [nM]	GI50, drug alone (UO-31 [14]) [nM]	GI50, drug alone (SN12C [15]) [nM]	GI50, drug alone (786-O [16]) [nM]	minimum viability across doses (ACHN [17])	minimum viability across doses (CAKI-1 [18])	minimum viability across doses (769-P [19])	minimum viability across doses (A498 [20])	minimum viability across doses (TK-10 [21])	minimum viability across doses (UO-31 [22])	minimum viability across doses (SN12C [23])	minimum viability across doses (786-O [24])
CCN1CCN(c2ccc(Nc3cc(N(C)C(=O)Nc4c(Cl)c(OC)cc(OC)c4Cl)ncn3)cc2)CC1 [BGJ398 (NVP-BGJ398)]	2.28	2.1	3.22	3.84	2.68	2.98	2.91	2.7	747	519	> 10000	> 10000	3230	7580	6980	2250	0.111	0.133	0.631	0.92	0.327	0.401	0.385	0.218
CC[C@@H]1C(=O)N(C)c2cnc(Nc3ccc(C(=O)N[C@H]4CC[C@H](N5CCN(CC6CC6)CC5)CC4)cc3OC)nc2N1C(C)C [BI6727 (Volasertib)]	1.87	2.01	1.66	2.78	1.93	2.07	1.71	0.673	130	157	126	2030	293	58.1	123	12.3	0.0122	0.0881	0.0308	0.0429	0.0289	0.012	0.0643	0.00304
CC[C@@H]1C(=O)N(C)c2cnc(Nc3ccc(C(=O)NC4CCN(C)CC4)cc3OC)nc2N1C1CCCC1 [BI 2536]	1.37	1.78	1.58	1.97	1.91	1.61	1.37	0.585	49.9	93.6	120	458	317	83.9	54.9	10.1	0.121	0.121	0.049	0.0641	0.0909	0.0104	0.0427	0.0067
COC(=O)c1ccc2c(c1)NC(=O)/C2=C(\Nc1ccc(N(C)C(=O)CN2CCN(C)CC2)cc1)c1ccccc1 [BIBF1120 (Vargatef)]	2.77	2.81	3.42	3.91	3.09	4.65	2.58	3.94	2070	2130	> 10000	> 10000	> 10000	7360	> 10000	> 10000	0.255	0.251	0.917	0.892	0.61	0.439	0.393	0.782
Cc1ccc(-n2nc(C(C)(C)C)cc2NC(=O)Nc2ccc(OCCN3CCOCC3)c3ccccc23)cc1 [BIRB 796 (Doramapimod)]	2.88	3.46	3.52	4.02	3.02	3.74	3.36	3.46	> 10000	> 10000	> 10000	> 10000	> 10000	> 10000	> 10000	> 10000	0.709	0.858	0.91	0.879	0.712	0.787	0.796	0.748
Nc1cc(C(F)(F)F)c(-c2cc(N3CCOCC3)nc(N3CCOCC3)n2)cn1 [BKM120 (NVP-BKM120)]	2.31	2.31	2.57	2.89	2.2	2.65	2.23	1.56	887	608	1570	1930	641	1450	1670	179	0.0858	0.0499	0.0668	0.134	0.0981	0.0226	0.0728	0.00247
CC(C)c1cnn2c(NCc3ccccc3)cc(NCCCCCCN)nc12.Cl [BS-181 HCl]	3.3	2.84	3.58	4.29	2.97	5.07	3.22	3.43	> 10000	> 10000	> 10000	> 10000	> 10000	> 10000	> 10000	9750	0.54	0.753	0.902	1.1	0.696	1.15	0.842	0.424
O=C(NCCCNc1nc(Nc2cccc(NC(=O)N3CCCC3)c2)ncc1I)c1cccs1 [BX-795]	2.83	2.66	3.03	4.14	2.59	4.13	2.8	1.64	2940	2670	5630	> 10000	3930	5040	7510	99.9	0.217	0.17	0.149	0.917	0.218	0.0155	0.458	0.00247
O=C(Nc1cccc(Nc2ncc(Br)c(NCCc3cnc[nH]3)n2)c1)N1CCCC1 [BX-912]	3.08	2.59	3.15	4.04	2.81	3.91	2.94	2.16	4200	2070	> 10000	> 10000	5330	> 10000	5440	2040	0.251	0.139	0.587	0.742	0.292	0.961	0.266	0.0508
Cc1nc(NC(=O)N2CCC[C@H]2C(N)=O)sc1-c1ccnc(C(C)(C)C(F)(F)F)c1 [BYL719]	2.83	3.13	3.47	4.11	2.54	3.94	2.83	1.81	8550	> 10000	> 10000	> 10000	4800	> 10000	> 10000	1650	0.396	0.502	0.762	0.982	0.404	0.927	0.638	0.155
CCN(CCO)CCCOc1ccc2c(Nc3cc(CC(=O)Nc4cccc(F)c4)n[nH]3)ncnc2c1 [Barasertib (AZD1152-HQPA)]	2.71	2.49	2.81	4.38	2.94	3.35	3.06	1.76	> 10000	2080	4360	> 10000	> 10000	> 10000	> 10000	194	0.583	0.449	0.408	1.04	0.703	0.767	0.74	0.0818
COc1cc(Nc2c(C#N)cnc3cc(OCCCN4CCN(C)CC4)c(OC)cc23)c(Cl)cc1Cl [Bosutinib (SKI-606)]	2.16	2.38	2.68	3.08	2.61	2.35	2.34	2.94	429	849	1650	5050	1210	> 10000	1140	2510	0.0885	0.0478	0.111	0.233	0.0431	0.00817	0.126	0.0159
CC[C@H](Nc1ncnc2[nH]cnc12)c1nc2cccc(F)c2c(=O)n1-c1ccccc1 [CAL-101 (GS-1101)]	3.17	3.06	3.45	4.09	3.12	3.87	3.2	3.15	> 10000	> 10000	> 10000	> 10000	> 10000	> 10000	> 10000	> 10000	0.64	0.633	0.786	0.979	0.701	0.926	0.777	0.613
O=c1[nH]c2ccc(Cl)cc2c(N[C@@H]2CN3CCC2CC3)c1-c1nc2ccccc2[nH]1 [CHIR-124]	1.15	1.73	1.61	2.43	1.68	1.4	2.32	0.832	40.3	165	129	498	129	83.2	1190	36.5	0.0184	0.0814	0.017	0.0252	0.168	0.0103	0.0133	0.0053
C=CC(=O)Nc1cc2c(Nc3ccc(F)c(Cl)c3)ncnc2cc1OCCCN1CCOCC1 [CI-1033 (Canertinib)]	2.09	2.8	2.24	3.62	2.11	3.48	2.52	2.52	532	5530	1000	8550	626	> 10000	5220	> 10000	0.158	0.382	0.344	0.141	0.156	0.557	0.104	0.487
Cc1nc(N)sc1-c1ccnc(Nc2ccc(N3CCOCC3)cc2)n1 [CYC116]	2.45	2.23	2.86	3.68	2.31	3.6	2.72	1.88	975	693	2990	7870	1890	8170	3210	727	0.107	0.027	0.137	0.287	0.152	0.00864	0.207	0.00272
COc1cc2c(Oc3ccc4[nH]c(C)cc4c3F)ncnc2cc1OCCCN1CCCC1 [Cediranib (AZD2171)]	2.5	2.35	2.94	3.15	2.62	2.76	2.55	2.5	969	740	5430	5360	2290	2980	2870	2600	0.0987	0.0807	0.293	0.17	0.0469	0.0213	0.248	0.129
N#CCNC(=O)c1ccc(-c2ccnc(Nc3ccc(N4CCOCC4)cc3)n2)cc1 [Cyt387]	2.82	2.51	3.08	4.74	2.6	3.36	3.06	2.19	1980	1420	6390	> 10000	2700	4280	8320	941	0.0637	0.0592	0.29	0.868	0.152	0.0114	0.434	0.00487
